Target: T1, CETP (Homo sapiens, UniProt P11597)
T1 sequence (P11597 18-493): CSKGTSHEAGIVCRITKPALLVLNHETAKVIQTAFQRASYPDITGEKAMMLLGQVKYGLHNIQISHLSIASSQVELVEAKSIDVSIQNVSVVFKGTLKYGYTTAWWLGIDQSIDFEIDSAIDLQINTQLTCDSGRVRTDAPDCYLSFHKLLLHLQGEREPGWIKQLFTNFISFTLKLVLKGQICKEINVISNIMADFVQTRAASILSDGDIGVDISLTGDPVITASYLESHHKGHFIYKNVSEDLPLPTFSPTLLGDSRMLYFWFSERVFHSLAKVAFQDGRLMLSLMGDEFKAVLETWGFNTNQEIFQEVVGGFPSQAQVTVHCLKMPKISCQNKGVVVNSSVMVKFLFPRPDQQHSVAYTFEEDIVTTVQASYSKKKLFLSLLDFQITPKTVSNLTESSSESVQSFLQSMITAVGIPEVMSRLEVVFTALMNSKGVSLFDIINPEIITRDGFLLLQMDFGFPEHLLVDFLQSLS
Assay: In vitro CETP activity inhibitory effect in whole plasma
Format: biochemical
Design: Plasma containing [^3H]CE-HDL3 (600,000 dpm/ml) was prepared by adding donor lipoprotein obtained in the above (1) to plasma from healthy subjects; from tissue; host or cells: whole plasma of healthy subjects
Conditions: plasma from healthy subjects containing [3H]CE-HDL3, incubated 4 hours at 37° C.; read-out: CETP activity inhibition in whole plasma IC50
Method: The fraction thus obtained was dialyzed against a PBS solution [10 mM Na2HPO4/10 mM NaH2PO4/0.15 M NaCl/1 mM EDTA (pH 7.4)]. Then, tritium-labeled cholesterol (10 nM) (50.3 Ci/mM) was dissolved in 95% ethanol and added gradually to the above HDL3 fraction under stirring. The solution was incubated for 18 hours at 37° C. […] After incubation, KBr was added and specific gravity was adjusted to d=1.21 g/ml. […] A sample solution was prepared using a 1:1 solution of N-methylpyrrolidone and polyethyleneglycol 400 as a solvent. […] Based on the inhibition rate (%) of CETP activity, IC50 value of each sample was calculated.

| IC50 [µM] | Structure (SMILES) |
| --- | --- |
| 20 | CC(C)(C)C(=O)Nc1ccccc1SSc1ccccc1NC(=O)C(C)(C)C [Example 1, bis-[2-(pivaloylamino)phenyl]disulfide] |
| 41 | CC(C)C(=O)Nc1ccccc1SSc1ccccc1NC(=O)C(C)C [Example 1-1] |
| 25 | CCCCC(=O)Nc1ccccc1SSc1ccccc1NC(=O)CCCC [Example 1-2] |
| 22 | O=C(Nc1ccccc1SSc1ccccc1NC(=O)C1CCCCC1)C1CCCCC1 [Example 1-6] |
| 24 | O=C(Nc1ccccc1SSc1ccccc1NC(=O)c1ccncc1)c1ccncc1 [Example 1-7] |
| 21 | CCCCC(=O)Nc1ccccc1SSc1ccccc1NC(=O)CCCC [Example 1-8] |
| 12 | O=C(Nc1ccccc1SSc1ccccc1NC(=O)C12CC3CC(CC(C3)C1)C2)C12CC3CC(CC(C3)C1)C2 [Example 1-12] |
| 18 | CC(C)(C)C1CCC(C(=O)Nc2ccccc2SSc2ccccc2NC(=O)C2CCC(C(C)(C)C)CC2)CC1 (stereo not shown) [Example 1-13] |
| 101 | O=C(Nc1ccccc1SSc1ccccc1NC(=O)c1ccccc1)c1ccccc1 [Example 3] |
| 175 | O=C(Nc1ccccc1SSc1ccccc1NC(=O)c1cccs1)c1cccs1 [Example 4] |
| 3 | CCCC(CCC)C(=O)Nc1ccccc1SSc1ccccc1NC(=O)C(CCC)CCC [Example 5] |
| 5 | CC1(C(=O)Nc2ccccc2SSc2ccccc2NC(=O)C2(C)CCCCC2)CCCCC1 [Example 6] |
| 2 | CC(C)CCC1(C(=O)Nc2ccccc2SSc2ccccc2NC(=O)C2(CCC(C)C)CCCC2)CCCC1 [Example 7] |
| 99 | CC(C)(C)C(=O)Nc1ccccc1S [Example 9, N-(2-mercaptophenyl)-2,2-dimethylpropioneamide] |
| 17 | CC1(C(=O)Nc2ccccc2S)CCCCC1 [Example 12] |
| 5 | CC(C)CCC1(C(=O)Nc2ccccc2S)CCCC1 [Example 13] |
| 12 | CCC1(C(=O)Nc2ccccc2S)CCCCC1 [Example 15] |
| 8 | CCCC1(C(=O)Nc2ccccc2S)CCCCC1 [Example 16] |
| 8 | CCCCC1(C(=O)Nc2ccccc2S)CCCCC1 [Example 17] |
| 6 | CC(C)CC1(C(=O)Nc2ccccc2S)CCCCC1 [Example 18, N-(2-mercaptophenyl)-1-isobutylcyclohexanecarboxamide] |
| 179 | COc1ccc(S)c(NC(=O)C2(C)CCCCC2)c1 [Example 19, N-(2-mercapto-5-methoxyphenyl)-1-methylcyclohexanecarboxamide] |

| IC50 [µM] | Structure (SMILES) |
| --- | --- |
| 19 | CC1(C(=O)Nc2cc(F)ccc2S)CCCCC1 [Example 19-1] |
| 33 | Cc1ccc(S)c(NC(=O)C2(C)CCCCC2)c1 [Example 19-2] |
| 17 | CC1(C(=O)Nc2cc(F)c(F)cc2S)CCCCC1 [Example 19-5] |
| 18 | CC1(C(=O)Nc2ccc(F)cc2S)CCCCC1 [Example 19-6] |
| 16 | CC(C)CCC1(C(=O)Nc2cc(Cl)c(Cl)cc2S)CCCCC1 [Example 20] |
| 9 | CC(C)CCC1(C(=O)Nc2cc(Cl)c(Cl)cc2S)CCCC1 [Example 21] |
| 32 | CC(C)(C)C(=O)Nc1ccccc1SC(=O)C1CCCCC1 [Example 25-4] |
| 46 | CC(C)(C)C(=O)Nc1ccccc1SC(=O)Cc1ccccc1[N+](=O)[O-] [Example 25-7] |
| 25 | CC(C)(C)C(=O)Nc1ccccc1SC(=O)Cc1cccc([N+](=O)[O-])c1 [Example 25-8] |
| 33 | CC(C)(C)C(=O)Nc1ccccc1SC(=O)CCCc1ccccc1 [Example 25-12] |
| 28 | CC(C)(C)C(=O)Nc1ccccc1CC(=O)Sc1ccccc1NC(=O)C(C)(C)C [Example 25-13] |
| 30 | CC(C)(C)C(=O)Nc1ccccc1SC(=O)CCc1ccccc1 [Example 25-14] |
| 41 | CC1(C(=O)Nc2ccccc2SC(=O)CC2CCCCC2)CCCCC1 [Example 25-16] |
| 23 | CC1(C(=O)Nc2ccccc2SC(=O)Cc2ccccc2)CCCCC1 [Example 25-17] |
| 19 | CC(C)(C)C(=O)Nc1ccccc1CC(=O)Sc1ccccc1NC(=O)C1(C)CCCCC1 [Example 25-18] |
| 22 | CC1(C(=O)Nc2ccccc2CC(=O)Sc2ccccc2NC(=O)C2(C)CCCCC2)CCCCC1 [Example 25-19] |
| 48 | CC(C)(C)C(=O)Nc1ccccc1SC(=O)Cc1ccccc1NC(=O)C1(C)CCCCC1 [Example 25-20] |
| 28 | CC1(C(=O)Nc2ccccc2SC(=O)Cc2ccc(Cl)cc2)CCCCC1 [Example 25-21] |
| 27 | CC1(C(=O)Nc2ccccc2SC(=O)Cc2cccc(Cl)c2)CCCCC1 [Example 25-22] |
| 25 | CC1(C(=O)Nc2ccccc2SC(=O)Cc2ccccc2Cl)CCCCC1 [Example 25-23] |
| 24 | CC1(C(=O)Nc2ccccc2SC(=O)Cc2ccc3ccccc3c2)CCCCC1 [Example 25-25] |

| IC50 [µM] | Structure (SMILES) |
| --- | --- |
| 22 | CC1(C(=O)Nc2ccccc2SC(=O)Cc2ccc(-c3ccccc3)cc2)CCCCC1 [Example 25-26] |
| 21 | CC1(C(=O)Nc2ccccc2SC(=O)c2cccnc2)CCCCC1 [Example 25-27] |
| 21 | CC1(C(=O)Nc2ccccc2SC(=O)Cc2cccs2)CCCCC1 [Example 25-28] |
| 21 | CC1(C(=O)Nc2cccc(CC(=O)Sc3ccccc3NC(=O)C3(C)CCCCC3)c2)CCCCC1 [Example 25-30] |
| 21 | CC(=O)Nc1cccc(CC(=O)Sc2ccccc2NC(=O)C2(C)CCCCC2)c1 [Example 25-31] |
| 20 | CC(=O)N[C@@H](Cc1ccccc1)C(=O)Sc1ccccc1NC(=O)C1(C)CCCCC1 [Example 25-32] |
| 18 | CC(=O)NCC(=O)Sc1ccccc1NC(=O)C1(C)CCCCC1 [Example 25-33] |
| 21 | CC(C)(C)OC(=O)Nc1ccccc1CC(=O)Sc1ccccc1NC(=O)C1(C)CCCCC1 [Example 25-34] |
| 27 | CC(=O)N[C@@H](CC(C)C)C(=O)Sc1ccccc1NC(=O)C1(C)CCCCC1 [Example 25-35] |
| 30 | CC(=O)N[C@@H](Cc1ccc(O)cc1)C(=O)Sc1ccccc1NC(=O)C1(C)CCCCC1 [Example 25-36] |
| 24 | CC(=O)N1CCC[C@H]1C(=O)Sc1ccccc1NC(=O)C1(C)CCCCC1 [Example 25-37] |
| 20 | CC(=O)N[C@@H](C(=O)Sc1ccccc1NC(=O)C1(C)CCCCC1)c1ccccc1 [Example 25-38] |
| 22 | CC(=O)N[C@H](C(=O)Sc1ccccc1NC(=O)C1(C)CCCCC1)c1ccccc1 [Example 25-39] |
| 23 | CC1(C(=O)Nc2ccccc2SC(=O)[C@H](NC(=O)c2ccccc2)c2ccccc2)CCCCC1 [Example 25-40] |
| 26 | CC1(C(=O)Nc2ccccc2SC(=O)[C@H](NC(=O)C2(C)CCCCC2)c2ccccc2)CCCCC1 [Example 25-41] |
| 22 | CC1(C(=O)Nc2ccccc2SC(=O)[C@H](N)c2ccccc2)CCCCC1 [Example 25-42] |
| 9 | CC(=O)N[C@@H](C)C(=O)Sc1ccccc1NC(=O)C1(CCC(C)C)CCCCC1 [Example 25-44] |
| 29 | CC(C)CCC1(C(=O)Nc2ccccc2SC(=O)C(c2ccccc2)c2ccccc2)CCCCC1 [Example 25-47] |
| 23 | CC(C)CCC1(C(=O)Nc2ccccc2SC(=O)c2ccc(C(=O)Sc3ccccc3NC(=O)C3(CCC(C)C)CCCCC3)cc2)CCCCC1 [Example 25-48] |

From US9000045B2, “CETP activity inhibitors” (Japan Tobacco Inc., priority 1997, dated 2015)
